Laboratory results from US20060025477A1, “Analogs of isovaleramide, a pharmaceutical composition including the same, and a method of treating central nervous system conditions or diseases” (priority 2004, published 2006).

What was measured:
[1] = tested on: Frings audiogenic seizure-susceptible mouse; test: Frings audiogenic seizure assay (protection against sound-induced tonic hindlimb extension); assay type: in vivo; details: Mus musculus, po, Table 5; read-out: ED50 Oral Administration
Experimental: The anticonvulsant activity of compound S ((S)-(+)-2,2-dimethylcyclopropane-carboxamide) was tested using the Frings audiogenic seizure-susceptible mouse. […] Compound S, which is a solution at 300 mg/kg and a suspension at 600 mg/kg, was administered to the mice at the doses indicated in Tables 1-3. Compound S was obtained from Sigma-Aldrich Chemical Co. (Aldrich catalog number: 43,463-9).
At the time of testing, individual mice were placed into a round Plexiglas chamber and exposed to a sound stimulus of 110 decibels, 11 kHz, for 20 seconds. Mice not displaying tonic hindlimb extensions upon exposure to the sound stimulus were considered protected. In addition, the seizure score for each mouse was recorded as: (1) running for less than 10 seconds; (2) running for greater than 10 seconds; (3) clonic activity of limbs and/or vibrissae; (4) forelimb extension/hindlimb flexion; and (5) hindlimb extension. The average seizure score was calculated for each group of mice used in the dose-response study.
The anticonvulsant activity of compounds I, W, X, and AA was tested using the Frings audiogenic seizure-susceptible mouse model as described in Example 23. […] The therapeutic index relates to separation between therapeutic efficacy and CNS toxicity as measured by motor impairment in the rotarod performance test.

Frings mice = test: Rotarod test of motor impairment (toxicity) in the Frings study; assay type: in vivo; details: Frings, mouse, in vivo, po
Experimental: At each dose, the mice were also tested on a rotarod for testing of motor impairment (toxicity). Testing for motor impairment on the rotarod involved placing a mouse for a three-minute trial period on a one-inch diameter rod rotating at six revolutions per minute. If the mouse fell off of the rotating rod three times within the three-minute time period, the dose was considered a toxic response.
The therapeutic index relates to separation between therapeutic efficacy and CNS toxicity as measured by motor impairment in the rotarod performance test.

male Swiss-Webster mice [2] = test: Maximal electroshock (MES)-induced tonic extension seizure test; assay type: in vivo, mouse; details: 300 mg/kg p.o.
Experimental: In the MES test, a substance is administered orally (p.o.) and is tested for efficacy against maximal electroshock (MES)-induced tonic extension seizures. Adult male Swiss-Webster mice (each 20-25 g of body weight) were used. The mice were housed in Association for the Assessment and Accreditation of Laboratory Animal Care-approved facilities under a constant 12-hour light/dark cycle with a constant temperature of 21° C.-23° C. and a relative humidity of 30% to 50%. All animals were permitted free access to standard laboratory chow (Prolab RMH 3000; PMI Nutrition International, LLC, Brentwood, Mo.) and water, except when removed from their home cages for testing. All mice were handled in a manner consistent with the recommendations in the National Research Council Publication Guide for the Care and Use of Laboratory Animals.
(§1) Test compounds (Compound S, Compound W, the S-enantiomer of Compound AA, the R-enantiomer of Compound AA, Compound HH, Compound JJ, and Compound MM) were dissolved in saline containing 0.5% methylcellulose. To determine time to peak effect, 300 mg/kg of each of the test compounds was suspended in 0.5% methylcellulose in saline and administered orally to a group of 20 mice. For comparative purposes, isovaleramide was also tested. At various times (0.25, 0.5, 1, 2, and 4 hours) after p.o. administration, individual mice were placed on the rotarod and tested for their ability to maintain balance on a rotating (6 rpm) 2.5-cm diameter knurled rod for 60 seconds. Mice that fell three times in this 60-second trial were considered impaired.
Following rotarod testing, the mice were tested in the maximal electroshock (MES)-induced tonic extension seizures test. For this test, a drop of electrolyte solution (0.5% butacaine sulfate in 0.9% saline) was placed on the eyes of each mouse prior to placement of corneal electrodes. The mice were restrained by gripping the loose skin on their dorsal surface and saline-coated corneal electrodes were held lightly against the two corneas. Each mouse received an electrical stimulation (50 mAmp, 50 Hz current, 0.2 sec) delivered through a silver-coated corneal electrode using an electroshock machine as originally described by Woodbury and Davenport (Arch Int. Pharmacodyn. Ther., 92:97-104, 1952). […] A tonic seizure was defined as a hindlimb extension in excess of 90 degrees from the plane of the body. Results were treated in a quantal manner. […] ED50's (the effective dose at which 50% of the mice were protected) were determined for Compounds W and HH by administering various doses (30, 100, 300 mg/kg) at the previously determined time to peak effect, as shown in Table 11.

male Swiss-Webster mice [3] = test: Rotarod impairment test before MES testing; assay type: in vivo, mouse; details: 300 mg/kg p.o.
Experimental: as §1

Row | SMILES | ED50 [1] [mg/kg] | Therapeutic Index (Frings mice) | # P/# T (protected/tested) (male Swiss-Webster mice [2]; 0.25 hours) | # P/# T (protected/tested) (male Swiss-Webster mice [2]; 0.5 hours) | # P/# T (protected/tested) (male Swiss-Webster mice [2]; 1 hour) | # P/# T (protected/tested) (male Swiss-Webster mice [2]; 2 hours) | # P/# T (protected/tested) (male Swiss-Webster mice [2]; 4 hours) | # I/# T (impaired/tested) (male Swiss-Webster mice [3]; 0.25 hours) | # I/# T (impaired/tested) (male Swiss-Webster mice [3]; 0.5 hours) | # I/# T (impaired/tested) (male Swiss-Webster mice [3]; 1 hour) | # I/# T (impaired/tested) (male Swiss-Webster mice [3]; 2 hours) | # I/# T (impaired/tested) (male Swiss-Webster mice [3]; 4 hours)
1 | CC(C)C(C)C(N)=O (racemic) [AA (cis and trans mixture)] | 140 | – | – | – | – | – | – | – | – | – | – | –
2 | CC(C)[C@H](C)C(N)=O [AA (R- enantiomer)] | 84.2 | >4-fold | 0/4 | 0/4 | 0/4 | 0/4 | 0/4 | 3/4 | 3/4 | 0/4 | 3/4 | –
3 | CC(C)[C@@H](C)C(N)=O [AA (S- enantiomer)] | 84.1 | >4-fold | 3/4 | 0/4 | 1/4 | 1/4 | 0/4 | 0/4 | 1/4 | 0/4 | 0/4 | 0/4
4 | CC(C)CC(=O)NCC(N)=O [Compound I] | < 1000 | – | – | – | – | – | – | – | – | – | – | –
5 | CC(C)C(C)(C)C(N)=O [Compound JJ] | – | – | 1/4 | 0/4 | 0/4 | 0/4 | 0/4 | 1/4 | 2/4 | 1/4 | 0/4 | 0/4
